IC50 data for 21 molecules are collected here from US20220235064A1 (WELLMARKER BIO CO., LTD., priority 2019, published 2022).

The target of the test is T1, RON tyrosine kinase (Homo sapiens, UniProt Q04912).
T1 construct: purchased Carna Bioscience
Put plainly: Enzyme inhibitory activity against RON tyrosine kinase (TR-FRET). As to conditions: RON (Carna Bioscience). It is filed as biochemical. As to the method: Experimental Example 1: Measurement of Enzyme Inhibitory Activity Against RON Tyrosine Kinase
To measure enzyme inhibitory activity of the example compounds against RON, IC50 values of the compounds were measured using fluorescence resonance energy transfer (FRET).
Specifically, first, RON (Carna Bioscience) was diluted in a kinase assay buffer (50 mM HEPES pH 7.5, 1 mM EGTA, 10 mM MgCl2, 2 mM DTT, and 0.01% Tween-20) to be at a concentration (0.4 nM) that is twice the final reaction concentration. The dilute was added to a 384-well-plate at 5 μl per well. Each of the example compounds was prepared at a concentration of 1 mM in 100% DMSO and diluted 8 times in a stepwise manner through 10-fold dilution. Each compound was diluted in a kinase assay buffer to be at a concentration that is 4 times the final reaction concentration. The dilute was added to a 384-well-plate at 2.5 μl per well, and incubation was performed at room temperature for 15 minutes.
Thereafter, an ATP solution (Sigma Aldrich) prepared at a concentration of 0.25 M was diluted in a kinase assay buffer to be at a concentration (60 μM) that is 4 times the final reaction concentration. Dilution of a tyrosine peptide substrate (Perkin-Elmer) was performed therein to be at a concentration (400 nM) that is 4 times the final reaction concentration. The dilute was added to a 384-well-plate at 2.5 µl per well. Reaction was allowed to proceed for 60 minutes by incubating the 384-well-plate at room temperature. Thereafter, EDTA (Sigma Aldrich) was diluted in a TR-FRET detection buffer (Perkin-Elmer) to be at a concentration (20 mM) that is twice the final reaction concentration. Dilution of a Europium-containing phosphotyrosine antibody (Perkin-Elmer) was performed in the diluted EDTA solution to be at a concentration (4 nM) that is twice the final reaction concentration, so that a stop solution for RON reaction was prepared.
The stop solution was added to the 384-well-plate at 10 μl per well to quench the reaction, and incubation was performed at room temperature for 60 minutes. Then, the 384-well-plate was read on a Victor X5 (Perkin-Elmer) plate reader. Here, the excitation wavelength was 340 nm, and the emission wavelengths were 620 nm and 665 nm. An IC50 value of the compound was derived using GraphPad Prism 5 program, in which the IC50 was derived by expressing emission energy at the wavelength of 665 nm as a function of the compound concentration.

T1 sequence (Q04912 25-1400): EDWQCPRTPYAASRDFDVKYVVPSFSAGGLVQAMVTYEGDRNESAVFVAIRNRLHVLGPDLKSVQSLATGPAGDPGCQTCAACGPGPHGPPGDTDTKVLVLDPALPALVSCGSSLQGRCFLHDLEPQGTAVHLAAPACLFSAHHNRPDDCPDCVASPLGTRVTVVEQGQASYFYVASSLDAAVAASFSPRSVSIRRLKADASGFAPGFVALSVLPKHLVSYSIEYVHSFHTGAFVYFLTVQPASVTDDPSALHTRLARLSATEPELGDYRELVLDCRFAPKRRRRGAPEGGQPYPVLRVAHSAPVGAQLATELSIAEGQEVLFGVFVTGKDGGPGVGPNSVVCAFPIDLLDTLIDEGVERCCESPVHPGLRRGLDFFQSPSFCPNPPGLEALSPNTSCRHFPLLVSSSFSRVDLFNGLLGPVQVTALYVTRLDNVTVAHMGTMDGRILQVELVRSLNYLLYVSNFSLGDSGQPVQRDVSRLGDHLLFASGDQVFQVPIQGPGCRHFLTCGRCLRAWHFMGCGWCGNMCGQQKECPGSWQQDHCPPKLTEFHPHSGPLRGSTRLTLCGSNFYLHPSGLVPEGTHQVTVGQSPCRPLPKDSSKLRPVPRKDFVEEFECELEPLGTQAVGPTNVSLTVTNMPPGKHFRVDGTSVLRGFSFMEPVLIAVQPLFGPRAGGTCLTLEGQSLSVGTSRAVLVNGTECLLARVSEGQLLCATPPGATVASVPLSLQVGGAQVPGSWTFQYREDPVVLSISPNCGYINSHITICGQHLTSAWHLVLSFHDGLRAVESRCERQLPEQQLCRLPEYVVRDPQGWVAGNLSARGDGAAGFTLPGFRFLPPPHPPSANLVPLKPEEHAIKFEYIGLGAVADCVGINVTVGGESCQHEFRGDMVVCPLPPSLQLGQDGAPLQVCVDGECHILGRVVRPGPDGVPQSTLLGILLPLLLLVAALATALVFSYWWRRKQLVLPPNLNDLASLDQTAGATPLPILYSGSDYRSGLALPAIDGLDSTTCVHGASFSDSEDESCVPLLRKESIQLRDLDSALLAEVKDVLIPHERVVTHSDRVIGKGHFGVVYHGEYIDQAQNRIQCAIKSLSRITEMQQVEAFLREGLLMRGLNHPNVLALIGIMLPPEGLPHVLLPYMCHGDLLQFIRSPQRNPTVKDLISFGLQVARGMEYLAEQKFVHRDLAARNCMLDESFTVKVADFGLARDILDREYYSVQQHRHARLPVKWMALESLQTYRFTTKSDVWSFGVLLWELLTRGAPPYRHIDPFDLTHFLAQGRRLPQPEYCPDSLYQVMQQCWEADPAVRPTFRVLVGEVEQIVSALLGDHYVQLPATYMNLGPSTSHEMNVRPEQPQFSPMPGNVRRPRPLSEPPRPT

Molecule `O=C(Nc1ccc(Oc2ccnc3cc(-c4ccc(CN5CCOCC5)cn4)sc23)c(F)c1)c1c2c(cn(-c3ccc(F)cc3)c1=O)CCC2` [Example 7] showed an IC50 of 34.9 nM.

As for `COc1cc2nccc(Oc3ccc(NC(=O)c4c5c(cn(-c6ccc(C(F)(F)F)cc6)c4=O)CCO5)cc3F)c2cc1OC` [Example 42, N-(4-((6,7-Dimethoxyquinolin-4-yl)oxy)-3-fluorophenyl)-6-oxo-5-(4-(trifluoromethyl)phenyl)-2,3,5,6-tetrahydrofuro[3,2-c]pyridine-7-carboxamide], the IC50 worked out at 30 nM.

In turn, `COc1cc2nccc(Oc3ccc(NC(=O)c4c5c(cn(-c6cccc(F)c6)c4=O)CCO5)cc3F)c2cc1OC` [Example 43, N-(4-((6,7-Dimethoxyquinolin-4-yl)oxy)-3-fluorophenyl)-6-oxo-5-(3-fluorophenyl)-2,3,5,6-tetrahydrofuro[3,2-c]pyridine-7-carboxamide] showed an IC50 of 5.13 nM.

As to `NC(=O)c1nccc(Oc2ccc(NC(=O)c3c4c(cn(-c5ccc(F)cc5)c3=O)CCO4)cc2F)c1Cl` [Example 54, N-(4-((2-Carbamoyl-3-chloropyridin-4-yl)oxy)-3-fluorophenyl)-5-(4-fluorophenyl)-6-oxo-2,3,5,6-tetrahydrofuro[3,2-c]pyridine-7-carboxamide], the IC50 is > 1000 nM. The molecule `Nc1nccc(Oc2ccc(NC(=O)c3c4c(cn(-c5ccc(F)cc5)c3=O)CCO4)cc2F)c1Cl` [Example 55, N-(4-((2-Amino-3-chloropyridin-4-yl)oxy)-3-fluorophenyl)-5-(4-fluorophenyl)-6-oxo-2,3,5,6-tetrahydrofuro[3,2-c]pyridine-7-carboxamide] registered an IC50 of 2.24 nM.

Take `Nc1cc(Oc2ccc(NC(=O)c3c4c(cn(-c5ccc(F)cc5)c3=O)CCO4)cc2F)ccn1` [Example 56, N-(4-((2-Aminopyridin-4-yl)oxy)-3-fluorophenyl)-5-(4-fluorophenyl)-6-oxo-2,3,5,6-tetrahydrofuro[3,2-c]pyridine-7-carboxamide]: half-maximal inhibition (IC50) required 11.9 nM. Next, `Nc1nccc(Oc2ccc(NC(=O)c3c4c(cn(-c5ccc(F)cc5)c3=O)CCO4)cc2F)n1` [Example 57, N-(4-((2-Aminopyrimidin-4-yl)oxy)-3-fluorophenyl)-5-(4-fluorophenyl)-6-oxo-2,3,5,6-tetrahydrofuro[3,2-c]pyridine-7-carboxamide]: 18.2 nM. As for `Nc1cc(Oc2ccc(NC(=O)c3c4c(cn(-c5ccc(F)cc5)c3=O)CCO4)cc2F)ncn1` [Example 58, N-(4-((6-Aminopyrimidin-4-yl)oxy)-3-fluorophenyl)-5-(4-fluorophenyl)-6-oxo-2,3,5,6-tetrahydrofuro[3,2-c]pyridine-7-carboxamide], the figure is 25 nM. In the case of `O=C(Nc1ccc(Oc2cc(NC3CCOCC3)ncn2)c(F)c1)c1c2c(cn(-c3ccc(F)cc3)c1=O)CCO2` [Example 59], half-maximal inhibition (IC50) was put at 2.24 nM. `O=C(Nc1ccc(Oc2ccnc(NC3CCOCC3)c2)c(F)c1)c1c2c(cn(-c3ccc(F)cc3)c1=O)CCO2` [Example 60, N-(3-Fluoro-4-((2-((tetrahydro-2H-pyran-4-yl)amino)pyridin-4-yl)oxy)phenyl)-5-(4-fluorophenyl)-6-oxo-2,3,5,6-tetrahydrofuro[3,2-c]pyridine-7-carboxamide]: the IC50 came out at 13.1 nM. On to `CN1CCC(Nc2cc(Oc3ccc(NC(=O)c4c5c(cn(-c6ccc(F)cc6)c4=O)CCO5)cc3F)ncn2)CC1` [Example 61, N-(3-Fluoro-4-((6-((1-methylpiperidin-4-yl)amino)pyrimidin-4-yl)oxy)phenyl)-5-(4-fluorophenyl)-6-oxo-2,3,5,6-tetrahydrofuro[3,2-c]pyridine-7-carboxamide], for which the IC50 came out at 156 nM. Next, `O=C(Nc1ccc(Oc2ccnc3[nH]ccc23)c(F)c1)c1c2c(cn(-c3ccc(F)cc3)c1=O)CCO2` [Example 65, N-(4-((1H-pyrrolo[2,3-b]pyridin-4-yl)oxy)-3-fluorophenyl)-5-(4-fluorophenyl)-6-oxo-2,3,5,6-tetrahydrofuro[3,2-c]pyridine-7-carboxamide]: 1.72 nM; `O=C(Nc1ccc(Oc2ccnc3[nH]cnc23)c(F)c1)c1c2c(cn(-c3ccc(F)cc3)c1=O)CCO2` [Example 66, N-(4-((3H-imidazo[4,5-b]pyridin-7-yl)oxy)-3-fluorophenyl)-5-(4-fluorophenyl)-6-oxo-2,3,5,6-tetrahydrofuro[3,2-c]pyridine-7-carboxamide]: 8.63 nM. As for `Cc1nc2c(Oc3ccc(NC(=O)c4c5c(cn(-c6ccc(F)cc6)c4=O)CCO5)cc3F)ccnc2[nH]1` [Example 67, N-(3-Fluoro-4-((2-methyl-3H-imidazo[4,5-b]pyridin-7-yl)oxy)phenyl)-5-(4-fluorophenyl)-6-oxo-2,3,5,6-tetrahydrofuro[3,2-c]pyridine-7-carboxamide], the figure is 15 nM; as for `O=C(Nc1ccc(Oc2ccnc3[nH]ncc23)c(F)c1)c1c2c(cn(-c3ccc(F)cc3)c1=O)CCO2` [Example 68, N-(4-((1H-pyrazolo[3,4-b]pyridin-4-yl)oxy)-3-fluorophenyl)-5-(4-fluorophenyl)-6-oxo-2,3,5,6-tetrahydrofuro[3,2-c]pyridine-7-carboxamide], 1.57 nM. Next, `O=C(Nc1ccc(Oc2ccnc3ccoc23)c(F)c1)c1c2c(cn(-c3ccc(F)cc3)c1=O)CCO2` [Example 69, N-(3-Fluoro-4-((furo[3,2-b]pyridin-7-yl)oxy)phenyl)-5-(4-fluorophenyl)-6-oxo-2,3,5,6-tetrahydrofuro[3,2-c]pyridine-7-carboxamide]: 3.29 nM; `Cc1cc2c(Oc3ccc(NC(=O)c4c5c(cn(-c6ccc(F)cc6)c4=O)CCO5)cc3F)ccnc2[nH]1` [Example 70, N-(3-Fluoro-4-((2-methyl-1H-pyrrolo[2,3-b]pyridin-4-yl)oxy)-3-fluorophenyl)-5-(4-fluorophenyl)-6-oxo-2,3,5,6-tetrahydrofuro[3,2-c]pyridine-7-carboxamide]: 3.66 nM; `O=C(Nc1ccc(Oc2ncnc3[nH]cnc23)c(F)c1)c1c2c(cn(-c3ccc(F)cc3)c1=O)CCO2` [Example 72, N-(4-((9H-purin-6-yl)oxy)-3-fluorophenyl)-5-(4-fluorophenyl)-6-oxo-2,3,5,6-tetrahydrofuro[3,2-c]pyridine-7-carboxamide]: 46.2 nM.

`O=C(Nc1ccc(Oc2ncnc3c2CCN3)c(F)c1)c1c2c(cn(-c3ccc(F)cc3)c1=O)CCO2` [Example 74, N-(4-((6,7-Dihydro-5H-pyrrolo[2,3-d]pyrimidin-4-yl)oxy)-3-fluorophenyl)-5-(4-fluorophenyl)-6-oxo-2,3,5,6-tetrahydrofuro[3,2-c]pyridine-7-carboxamide] showed an IC50 of 9.75 nM. Next, `O=C(Nc1ccc(Oc2ccnc3ccnn23)c(F)c1)c1c2c(cn(-c3ccc(F)cc3)c1=O)CCO2` [Example 75, N-(3-Fluoro-4-(pyrazolo[1,5-a]pyrimidin-7-yloxy)phenyl)-5-(4-fluorophenyl)-6-oxo-2,3,5,6-tetrahydro[3,2-c]pyridine-7-carboxamide]: 2800 nM; `O=C(Nc1ccc(Oc2ccnc3cc(OCCN4CCOCC4)ccc23)c(F)c1)c1c2c(cn(-c3ccc(F)cc3)c1=O)CCO2` [Example 157, N-(3-Fluoro-4-((7-(2-morpholinylethoxy)quinolin-4-yl)oxy)phenyl)-5-(4-fluorophenyl)-6-oxo-2,3,5,6-tetrahydrofuro[3,2-c]pyridine-7-carboxamide]: 1.32 nM.

In general, IC50 refers to the concentration needed to halve the response being measured.
